The values that follow come from patent publication US20220105124A1, “METHODS FOR TARGETED TREATMENT AND PREDICTION OF PATIENT SURVIVAL IN CANCER” (University of Florida Research Foundation, Incorporated, priority 2019, published 2022).

The subject of this assay is GBM cells with high VDR expression. Nature of the assay: Treating GBM cells with high VDR expression with vitamin D. To be noted: GBM cells with high VDR expression treated with vitamin D. Type of assay: cell-based. An excerpt: The influence of vitamin D is also examined for its role the link between VDR (vitamin D receptor) and GBM prognosis. Addition of vitamin D is used to determine if vitamin D will direct VDR to a beneficial pro-immune function of liganded VDR. Removal of vitamin D is used to determine if vitamin D deficiency leads to harmful pro-tumor unliganded VDR signal.

With Vitamin D, the Sox2 expression result is “signal from VDR, leading to lower Sox2,”; the VDR expression entry was “unaffected”; the “abnormal signal from VDR” value is “cells with vitamin D reduces this abnormal”.
